Consider two compounds from article PMC5454592, “Pharmacological and Toxicological Properties of the Potent Oral γ-Secretase Modulator BPN-15606” (The Journal of Pharmacology and Experimental Therapeutics, 2017).

SMILES strings stand for the structures.

Details of data set [1]: method as in Soares et al., 2016; Toyn et al., 2016. To be noted: ref Soares et al., 2016, Toyn et al.; cited from earlier work.
Data set [2] deals with Notch proteolysis by γ-secretase. Description: Notch assay (Myc-tagged Notch NΔE in H4-APP751 neuroglioma cells). Format: cell-based. Conditions: H4-APP751 neuroglioma cells transfected with Myc-tagged Notch (NΔE) construct; Fig. 3. As for the experimental part:
Notch assays were carried out as described previously ([Wagner et al., 2014]).

On to `CNc1nc(Nc2ccc(-n3cnc(C)n3)c(OC)c2)nc2c1CC[C@H]2c1ccc(F)cc1` [BMS-932481], for which the “hepatic safety in repeated oral dosing studies in humans” value in data set [1] was “transient elevations in plasma concentrations of enzymes associated with hepatic toxicity”.
On to `C[C@H](NC(=O)Cc1cc(F)cc(F)c1)C(=O)N[C@H](C(=O)OC(C)(C)C)c1ccccc1` [N-[N-(3,5-difluorophenacetyl)-L-alanyl]-S-phenylglycine t-butyl ester, reference compound], for which the Notch proteolysis entry in data set [2] was “potently inhibits Notch proteolysis”.
